The results in this text go back to patent publication US7407988B2, “Carbamic acid compounds comprising a sulfonamide linkage as HDAC inhibitors” (Topotarget UK Limited, priority 2000, dated 2008).

The target of series [1] is T1, human HDAC2 (Homo sapiens, UniProt Q92769).
T1 construct: Full length human HDAC2 was subcloned; Flag (carried over from the HDAC2-pFlag-CTC construct; inferred by analogy to HDAC1) (C); implied by Ni-NTA purification) (N); made in house; host or cells: SF9 insect cells (baculovirus)
T1 sequence (Q92769 whole entry): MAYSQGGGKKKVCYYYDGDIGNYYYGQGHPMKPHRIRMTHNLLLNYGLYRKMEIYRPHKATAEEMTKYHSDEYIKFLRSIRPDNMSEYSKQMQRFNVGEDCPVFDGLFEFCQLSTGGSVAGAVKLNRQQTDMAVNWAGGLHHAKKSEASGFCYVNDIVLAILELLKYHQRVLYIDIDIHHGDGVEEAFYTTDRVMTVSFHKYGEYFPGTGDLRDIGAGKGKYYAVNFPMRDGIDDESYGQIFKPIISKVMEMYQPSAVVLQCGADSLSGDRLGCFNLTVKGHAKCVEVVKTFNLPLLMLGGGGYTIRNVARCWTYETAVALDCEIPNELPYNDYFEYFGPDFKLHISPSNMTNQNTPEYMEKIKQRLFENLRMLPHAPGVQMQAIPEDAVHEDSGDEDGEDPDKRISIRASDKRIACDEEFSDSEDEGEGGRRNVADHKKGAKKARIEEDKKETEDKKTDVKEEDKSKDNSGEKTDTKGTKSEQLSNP
Description: Primary assay: deacetylase activity, recombinantly produced HDAC2. Format: biochemical. The following applies: Table 1; recombinant HDAC2; read-out: HDAC Inhibition (IC50 unless otherwise specified) HDAC2.

Series [2] deals with HeLa cells. Put plainly: Secondary assay: cell proliferation WST-1, HeLa. Format: cell-based. The following applies: Homo sapiens, Table 2, 48 h, read-out: Cell Proliferation Inhibition WST-1 (IC50 unless otherwise specified) HeLa. For orientation: Formazan colour is commonly taken as a measure of viable cells.
For series [3], the system named is HDAC (HeLa cell extract). Description: Primary assay: deacetylase activity, HeLa cell extract as source of HDAC. Format: biochemical, human.

Read-outs that look alike come from different tables or passages of the source.

The compound `O=C(/C=C/c1cccc(NS(=O)(=O)c2ccccc2)c1)NO` [PX089344, 3-(3-Benzenesulfonylamino-phenyl)N-hydroxy-acrylamide] came in with a melting point of 172 °C. Besides, the IC50 in series [1] came out at 172 nM. Also, in series [2], the IC50 was 8900 nM. In addition, the IC50 in series [3] (Table 1, read-out: HDAC Inhibition (IC50 unless otherwise specified) HeLa) worked out at 89 nM. Also, the IC50 in series [3] (comparative tables, HDAC inhibition, read-out: HeLa IC50) came to 89 nM.

As usually defined, the melting point is the temperature, or range, at which the solid turns liquid.
